Test results: ChEMBL document CHEMBL4371069, “Click chemistry for improvement in selectivity of quinazoline-based kinase inhibitors for mutant epidermal growth factor receptors” (Bioorg Med Chem Lett, 2019)

Experiments:
CYP3A4 = CYP3A4 (Homo sapiens, UniProt P08684); assay: Inhibition of CYP3A4 in human liver microsomes assessed as residual activity at 10 uM using midazolam as substrate preincubated for 5 mins followed by NADPH addition and measured after 15 mins by LC-MS/MS analysis relative to control; format: ADME; conditions: probe midazolam, read-out: Activity
CYP2C8 = molecular target: T1, CYP2C8 (Homo sapiens, UniProt P10632); assay: Inhibition of CYP2C8 in human liver microsomes assessed as residual activity at 10 uM using amiodiaquine as substrate preincubated for 5 mins followed by NADPH addition and measured after 15 mins by LC-MS/MS analysis relative to control; format: ADME; conditions: probe amiodiaquine, read-out: Activity
T1 sequence (P10632 whole entry): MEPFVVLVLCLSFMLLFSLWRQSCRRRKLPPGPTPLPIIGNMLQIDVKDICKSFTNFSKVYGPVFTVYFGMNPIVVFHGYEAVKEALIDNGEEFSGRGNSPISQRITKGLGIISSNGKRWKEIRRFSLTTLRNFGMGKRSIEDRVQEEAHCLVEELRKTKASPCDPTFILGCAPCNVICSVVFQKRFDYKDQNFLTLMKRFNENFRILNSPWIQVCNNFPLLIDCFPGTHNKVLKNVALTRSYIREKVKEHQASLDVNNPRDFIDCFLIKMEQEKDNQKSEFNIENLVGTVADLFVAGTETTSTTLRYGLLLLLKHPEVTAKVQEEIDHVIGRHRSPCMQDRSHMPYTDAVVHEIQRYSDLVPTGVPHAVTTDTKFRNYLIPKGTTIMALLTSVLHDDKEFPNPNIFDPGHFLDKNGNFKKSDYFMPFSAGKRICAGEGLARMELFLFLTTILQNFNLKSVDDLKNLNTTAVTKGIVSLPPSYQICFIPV

CYP2A6 = molecular target: T2, CYP2A6 (Homo sapiens, UniProt P11509); assay: Inhibition of CYP2A6 in human liver microsomes assessed as residual activity at 10 uM using coumarin as substrate preincubated for 5 mins followed by NADPH addition and measured after 15 mins by LC-MS/MS analysis relative to control; format: ADME; conditions: probe coumarin, read-out: Activity
T2 sequence (P11509 whole entry): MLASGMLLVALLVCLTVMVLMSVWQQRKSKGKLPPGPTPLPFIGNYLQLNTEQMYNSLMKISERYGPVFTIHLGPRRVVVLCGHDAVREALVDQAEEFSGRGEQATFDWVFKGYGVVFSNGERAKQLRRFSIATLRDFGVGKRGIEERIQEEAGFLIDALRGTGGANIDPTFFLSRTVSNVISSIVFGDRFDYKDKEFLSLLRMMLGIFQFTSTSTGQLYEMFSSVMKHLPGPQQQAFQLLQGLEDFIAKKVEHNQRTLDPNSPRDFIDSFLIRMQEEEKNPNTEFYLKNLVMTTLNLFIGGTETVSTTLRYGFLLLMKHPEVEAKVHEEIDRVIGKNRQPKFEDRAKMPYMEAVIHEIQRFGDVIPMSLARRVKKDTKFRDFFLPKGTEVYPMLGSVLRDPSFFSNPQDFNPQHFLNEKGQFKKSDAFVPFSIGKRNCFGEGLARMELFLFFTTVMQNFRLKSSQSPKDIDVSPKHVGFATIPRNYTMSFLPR

CYP2C19 = CYP2C19 (Homo sapiens, UniProt P33261); assay: Inhibition of CYP2C19 in human liver microsomes assessed as residual activity at 10 uM using S-mephenytoin as substrate preincubated for 5 mins followed by NADPH addition and measured after 15 mins by LC-MS/MS analysis relative to control; format: ADME; conditions: probe S-mephenytoin, read-out: Activity
HepG2 = assay: Cytotoxicity against human HepG2 cells after 24 hrs by LDH release assay; format: cell-based; conditions: HepG2, 24 h
[1] = molecular target: Epidermal growth factor receptor (Homo sapiens, UniProt P00533); format: ADME, cell-based, Sf21
Description: Inhibition of human N-terminal GST-tagged EGFR kinase domain (696 to end residues) expressed in baculovirus infected sf21 cells using poly(Glu, Tyr) 4:1 as substrate

CYP2B6 = molecular target: T3, CYP2B6 (Homo sapiens, UniProt P20813); assay: Inhibition of CYP2B6 in human liver microsomes assessed as residual activity at 10 uM using bupropion as substrate preincubated for 5 mins followed by NADPH addition and measured after 15 mins by LC-MS/MS analysis relative to control; format: ADME; conditions: probe bupropion, read-out: Activity
T3 sequence (P20813 whole entry): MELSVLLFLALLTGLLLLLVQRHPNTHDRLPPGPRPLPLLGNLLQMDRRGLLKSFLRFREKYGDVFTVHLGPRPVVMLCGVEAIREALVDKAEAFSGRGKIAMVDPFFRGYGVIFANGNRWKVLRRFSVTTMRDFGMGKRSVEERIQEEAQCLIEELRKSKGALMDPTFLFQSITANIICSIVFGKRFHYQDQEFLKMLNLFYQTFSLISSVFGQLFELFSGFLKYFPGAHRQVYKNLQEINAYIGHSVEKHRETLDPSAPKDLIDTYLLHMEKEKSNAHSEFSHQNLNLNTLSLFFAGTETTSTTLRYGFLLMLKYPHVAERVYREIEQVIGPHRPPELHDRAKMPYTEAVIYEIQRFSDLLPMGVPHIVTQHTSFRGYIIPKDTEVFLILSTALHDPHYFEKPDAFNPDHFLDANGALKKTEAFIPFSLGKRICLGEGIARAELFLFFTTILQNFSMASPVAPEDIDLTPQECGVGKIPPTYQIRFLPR

PC-9 = assay: Antiproliferative activity against human PC9 cells harboring EGFR exon-19 del mutant after 72 hrs by EZ-Cytox assay; format: functional, cell-based; conditions: PC-9, 72 h
[2] = molecular target: Epidermal growth factor receptor (Homo sapiens, UniProt P00533, L858R/T790M); assay: biochemical; format: cell-based, Sf21
A549 = assay: Antiproliferative activity against human A549 cells harboring wild-type EGFR after 72 hrs by EZ-Cytox assay; format: ADME, cell-based; conditions: A549, 72 h
[3] = molecular target: Receptor tyrosine-protein kinase erbB-2 (Homo sapiens, UniProt P04626); assay: Inhibition of human C-terminal His6-tagged ERBB2 (676 to end residues) expressed in baculovirus infected sf21 cells using poly(Glu, Tyr) 4:1 as substrate
NCI-H1975 = assay: Antiproliferative activity against human NCI-H1975 cells harboring EGFR T790M/L858R double mutant after 72 hrs by EZ-Cytox assay; format: functional, cell-based; conditions: NCI-H1975, 72 h
CYP2C9 = CYP2C9 (Homo sapiens, UniProt P11712); assay: Inhibition of CYP2C9 in human liver microsomes assessed as residual activity at 10 uM using tolbutamide as substrate preincubated for 5 mins followed by NADPH addition and measured after 15 mins by LC-MS/MS analysis relative to control; format: ADME; conditions: probe tolbutamide, read-out: Activity
CYP2C9, sequence (P11712 whole entry): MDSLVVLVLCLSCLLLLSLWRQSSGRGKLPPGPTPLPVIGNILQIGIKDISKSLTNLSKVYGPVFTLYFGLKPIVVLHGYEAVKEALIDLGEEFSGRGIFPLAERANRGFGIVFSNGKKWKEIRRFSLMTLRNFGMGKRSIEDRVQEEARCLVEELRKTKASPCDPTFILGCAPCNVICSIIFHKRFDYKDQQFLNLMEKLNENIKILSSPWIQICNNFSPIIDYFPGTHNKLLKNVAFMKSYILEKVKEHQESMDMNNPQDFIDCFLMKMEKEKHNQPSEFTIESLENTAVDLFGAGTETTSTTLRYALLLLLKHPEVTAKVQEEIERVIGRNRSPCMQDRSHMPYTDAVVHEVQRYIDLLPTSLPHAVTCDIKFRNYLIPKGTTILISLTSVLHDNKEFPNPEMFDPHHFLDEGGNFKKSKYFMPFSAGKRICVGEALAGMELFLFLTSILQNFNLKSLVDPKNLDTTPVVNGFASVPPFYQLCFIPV

Receptor tyrosine-protein kinase erbB-2, sequence (P04626 whole entry): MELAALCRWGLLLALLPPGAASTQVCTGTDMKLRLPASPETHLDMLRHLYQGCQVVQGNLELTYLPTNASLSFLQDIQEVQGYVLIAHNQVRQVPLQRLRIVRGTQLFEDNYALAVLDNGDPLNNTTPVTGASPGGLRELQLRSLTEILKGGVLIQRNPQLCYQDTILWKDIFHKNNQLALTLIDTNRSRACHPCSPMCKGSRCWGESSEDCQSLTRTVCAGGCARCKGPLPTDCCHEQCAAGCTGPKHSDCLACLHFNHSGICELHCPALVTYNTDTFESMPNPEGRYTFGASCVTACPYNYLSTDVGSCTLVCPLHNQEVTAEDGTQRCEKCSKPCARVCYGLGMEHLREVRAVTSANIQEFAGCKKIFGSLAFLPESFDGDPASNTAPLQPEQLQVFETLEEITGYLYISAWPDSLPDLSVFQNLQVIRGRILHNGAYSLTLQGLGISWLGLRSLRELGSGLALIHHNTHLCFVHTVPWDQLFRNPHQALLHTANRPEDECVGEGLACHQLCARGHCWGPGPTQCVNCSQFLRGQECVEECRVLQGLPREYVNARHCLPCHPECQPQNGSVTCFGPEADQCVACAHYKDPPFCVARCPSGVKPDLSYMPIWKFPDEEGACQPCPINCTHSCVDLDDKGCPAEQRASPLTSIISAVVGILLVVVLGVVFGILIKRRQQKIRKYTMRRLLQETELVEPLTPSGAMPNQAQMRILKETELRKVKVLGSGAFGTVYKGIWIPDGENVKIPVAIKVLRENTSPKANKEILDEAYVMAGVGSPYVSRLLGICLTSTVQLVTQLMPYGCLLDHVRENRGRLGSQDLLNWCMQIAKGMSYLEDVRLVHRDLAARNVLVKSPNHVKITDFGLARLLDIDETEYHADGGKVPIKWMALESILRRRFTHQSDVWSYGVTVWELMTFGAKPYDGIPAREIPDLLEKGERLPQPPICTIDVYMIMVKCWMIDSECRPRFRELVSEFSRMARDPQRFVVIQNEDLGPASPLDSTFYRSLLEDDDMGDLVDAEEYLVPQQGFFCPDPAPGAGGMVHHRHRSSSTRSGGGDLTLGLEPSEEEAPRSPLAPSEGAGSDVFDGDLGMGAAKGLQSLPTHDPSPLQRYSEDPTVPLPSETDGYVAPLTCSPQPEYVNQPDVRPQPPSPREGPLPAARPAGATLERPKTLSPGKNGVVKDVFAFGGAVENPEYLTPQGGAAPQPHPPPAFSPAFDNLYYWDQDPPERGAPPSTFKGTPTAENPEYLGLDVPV
CYP3A4, sequence (P08684 whole entry): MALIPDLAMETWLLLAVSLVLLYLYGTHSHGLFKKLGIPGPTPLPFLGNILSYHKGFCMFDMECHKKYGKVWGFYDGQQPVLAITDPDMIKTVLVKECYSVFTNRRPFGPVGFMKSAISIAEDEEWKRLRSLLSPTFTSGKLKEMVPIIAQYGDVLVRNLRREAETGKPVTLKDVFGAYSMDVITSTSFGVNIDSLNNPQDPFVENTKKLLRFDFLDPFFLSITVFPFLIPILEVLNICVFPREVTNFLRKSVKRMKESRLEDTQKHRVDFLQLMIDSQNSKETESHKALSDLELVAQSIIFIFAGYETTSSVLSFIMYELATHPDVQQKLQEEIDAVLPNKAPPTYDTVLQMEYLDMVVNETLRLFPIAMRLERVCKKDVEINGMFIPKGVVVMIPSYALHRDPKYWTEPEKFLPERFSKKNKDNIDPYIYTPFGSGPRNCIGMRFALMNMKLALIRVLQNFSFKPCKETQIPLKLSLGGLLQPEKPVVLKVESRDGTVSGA
Epidermal growth factor receptor (Homo sapiens, UniProt P00533), sequence (P00533 whole entry): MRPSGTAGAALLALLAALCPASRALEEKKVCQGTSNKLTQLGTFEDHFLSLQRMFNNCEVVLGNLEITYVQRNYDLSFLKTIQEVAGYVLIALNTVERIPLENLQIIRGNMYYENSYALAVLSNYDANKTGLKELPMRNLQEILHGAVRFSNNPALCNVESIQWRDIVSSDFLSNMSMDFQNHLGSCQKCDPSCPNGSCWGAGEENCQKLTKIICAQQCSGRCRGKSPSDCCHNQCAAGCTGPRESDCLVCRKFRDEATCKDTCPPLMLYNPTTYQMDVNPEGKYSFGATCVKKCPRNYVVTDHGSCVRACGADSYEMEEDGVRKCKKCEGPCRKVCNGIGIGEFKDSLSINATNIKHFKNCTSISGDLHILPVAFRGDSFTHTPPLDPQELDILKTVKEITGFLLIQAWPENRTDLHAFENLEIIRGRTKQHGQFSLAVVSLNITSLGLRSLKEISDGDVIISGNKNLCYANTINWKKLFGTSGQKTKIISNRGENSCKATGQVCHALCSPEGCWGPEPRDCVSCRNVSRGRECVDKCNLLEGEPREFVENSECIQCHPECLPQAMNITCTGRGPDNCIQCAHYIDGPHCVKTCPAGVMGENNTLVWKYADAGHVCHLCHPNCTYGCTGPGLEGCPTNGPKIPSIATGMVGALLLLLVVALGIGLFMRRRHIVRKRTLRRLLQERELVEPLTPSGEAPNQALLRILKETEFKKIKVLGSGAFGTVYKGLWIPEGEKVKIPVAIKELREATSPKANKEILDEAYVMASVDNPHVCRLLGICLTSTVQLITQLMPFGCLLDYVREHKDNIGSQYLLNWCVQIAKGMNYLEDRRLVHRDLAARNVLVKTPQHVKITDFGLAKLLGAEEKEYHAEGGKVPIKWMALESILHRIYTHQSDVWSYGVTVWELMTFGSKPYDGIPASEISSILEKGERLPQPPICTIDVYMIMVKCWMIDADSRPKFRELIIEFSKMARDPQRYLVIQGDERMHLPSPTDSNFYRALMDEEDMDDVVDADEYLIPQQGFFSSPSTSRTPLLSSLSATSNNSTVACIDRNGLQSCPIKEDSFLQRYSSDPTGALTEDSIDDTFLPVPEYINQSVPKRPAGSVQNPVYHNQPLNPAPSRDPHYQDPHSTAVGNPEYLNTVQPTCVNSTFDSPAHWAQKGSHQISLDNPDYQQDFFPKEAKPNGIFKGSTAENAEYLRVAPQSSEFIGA
CYP2C19, sequence (P33261 whole entry): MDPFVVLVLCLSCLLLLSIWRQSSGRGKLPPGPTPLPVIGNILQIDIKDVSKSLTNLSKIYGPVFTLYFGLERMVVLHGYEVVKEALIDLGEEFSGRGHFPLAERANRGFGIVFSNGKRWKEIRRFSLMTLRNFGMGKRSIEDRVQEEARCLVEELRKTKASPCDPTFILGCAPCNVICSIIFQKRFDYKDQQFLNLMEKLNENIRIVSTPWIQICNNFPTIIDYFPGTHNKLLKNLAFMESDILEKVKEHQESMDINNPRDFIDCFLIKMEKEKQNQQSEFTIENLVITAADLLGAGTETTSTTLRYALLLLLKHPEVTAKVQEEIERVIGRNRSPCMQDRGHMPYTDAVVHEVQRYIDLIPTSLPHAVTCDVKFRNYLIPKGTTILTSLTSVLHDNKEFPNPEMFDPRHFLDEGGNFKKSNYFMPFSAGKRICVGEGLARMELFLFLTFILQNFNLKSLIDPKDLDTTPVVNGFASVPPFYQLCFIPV

SMILES	activity at 0.25 h, 10 µM (CYP3A4) [%]	activity at 0.25 h, 10 µM (CYP2C8) [%]	activity at 0.25 h, 10 µM (CYP2A6) [%]	activity at 0.25 h, 10 µM (CYP2C19) [%]	IC50 (HepG2) [nM]	IC50 [1] [nM]	activity at 0.25 h, 10 µM (CYP2B6) [%]	IC50 (PC-9) [nM]	IC50 [2] [nM]	IC50 (A549) [nM]	IC50 [3] [nM]	IC50 (NCI-H1975) [nM]	activity at 0.25 h, 10 µM (CYP2C9) [%]
C=CC(=O)Nc1cc2c(Nc3ccc(F)c(Cl)c3)ncnc2cc1OCc1cn(Cc2ccc(Cl)cc2)nn1	77.6	48.7	89	56.4	60000	62	78.8	0.9	12	2040	225	304	16.3
C=CC(=O)Nc1cc2c(Nc3ccc(F)c(Cl)c3)ncnc2cc1OCc1cn(Cc2cccc(F)c2)nn1	50.1	35.6	91	53.5	29000	68	67.1	0.9	4	5500	209	505	11.8
C=CC(=O)Nc1cc2c(Nc3ccc(F)c(Cl)c3)ncnc2cc1OCc1cn(Cc2ccc(F)cc2)nn1	55.3	36.4	82.7	51.1	27000	45	67.9	1	6	4310	212	453	13.5
